# How the values were obtained:
# [1] = molar basis; cited from earlier work
# horseradish peroxidase = assay: Preservation of dried horseradish peroxidase activity; assay type: biochemical; conditions: dried with or without trehalose; compared with alkaline phosphatase
# Rh D antigen = assay: titrated haemagglutination assay of dried human IgM anti-Rh D antibody; assay type: cell-based; conditions: for % activity retained in HA titre: dried antibody, sugar at 5% final concentration
# Text: (§1) They can then be stored at room temperature indefinitely.
# 3. Trehalose preserves 100% of the antibody activity. A test of five sugars all used at 5% final concentration in a titrated haemagglutination assay gave the following results.
# (§2) An additional titration was done to establish whether there is an optimum concentration of trehalose for preservation. The antibodies tested were mouse monoclonal IgM anti A antibody, a mouse monoclonal IgM anti B antibody and a human monoclonal IgM anti Rh antibody used above. They were diluted to an appropriate starting concentration as follows: mouse anti A 1:10, mouse anti B 1:10, human anti Rh (to a final concentration of 20μg/ml). These were titrated 1:3 across a 96 well microtitre plate in Dulbecco's phosphate buffered saline (PBS) in a final volume of 50μl. To each horizontal 8 well row was added 50μl of trehalose at concentrations ranging from 10% w/v to 0.1% w/v. The wells were then dried at 37° overnight. Next day the wells were rehydrated with 100μl distilled water containing buffer sufficient to restore isotonicity. Then 50μl aliquots were transferred to a v-bottom microtitre plate and 25μl of 1% washed human red cells carrying the appropriate blood group antigens added and mixed. Haemagglutination titres were read after 2-3 hours at room temperature. […] With the anti Aantibody any trehalose concentration above 1% preserved maximal activity and with the anti B antibody any concentration above 0.5% preserved maximum activity.
# rat IgG = assay: indirect haemagglutination titre of K237 antiserum dried on matrices and eluted; assay type: cell-based; conditions: dried on Whatman No. 1 cellulose paper
# Method: A number of different matrices were examined for use as a trehalose support. They include pure cellulose paper (Whatman No. 1 filter paper), glass fibre paper (What man GF/A and GF/C papers), polyurethane sponge foam and porous polyethylene sheet. These matrices were soaked in trehalose dissolved in distilled water at various concentrations from 10% down to 1% and dried at 37°. […] Various sera were applied to the paper and dried at 37°. After various periods of storage at 37+, samples were eluted with distilled water or normal saline; usually used in a volume 2-4 times that of the original serum sample so that their potency could be directly compared with fresh non-dried samples of the same sera.
# K237, a sheep antiserum against rat IgG, was dried on to 10% trehalose-impregnated cellulose paper, glass fibre paper and porous polyethylene sheet and stored for 7 days at 37° C.
# The paper or sheet was eluted with 4 volumes of normal saline and titrated in an indirect haemagllutination assay for its ability to agglutinate DA strain rat erythrocytes coated with a monoclonal antibody (JN2/85) against the class 1 antigens expressed on the erythrocyte membranes.
# The same antiserum was then tested by drying on the Whatman No. 1 cellulose paper in the presence of various sugars and in the absence of sugar.
# haemoglobin = assay: Spectral properties and gas exchange of dried haemoglobin; assay type: physicochemical; conditions: oxy and carboxy forms dried in the presence of trehalose
# Text: Many macromolecular functions require mobility of the macromolecule e.g. antibodies have to physically move into close proximity to their antigen in order for binding to occur through electrostatic and hydrophobic interactions. The same is true of enzymes binding their substrates. Minor molecular motion is also required for other macromolecular functions. Thus haemoglobin undergoes rotation and movement of certain amino acids during the reversible binding of oxygen and carbon dioxide. None of this molecular mobility is observed in the dry state.
# In contrast, the fluorescence of R-phycoerythrin involves "movement" only on the sub atomic level. Absorption of light energy at low wavelengths e.g. (488 nm) causes electrons in the chromophores to shift to higher energy orbits. Fluorescence at longer wavelengths is due to the emission of photons when these electrons jump back to lower energy orbits. […] This method is therefore of great interest in the application of biological (and synthetic) macromolecules in new electronic applications. Examples include proton and electron pumping (such as is mediated, on exposure to light, by bacteriorhodopsin and rhodopsin). […]
# fixed red cells = assay: Drying of antigen- or antibody-coupled fixed red blood cells; assay type: cell-based; conditions: dried in the presence of trehalose
# Text: Upon rehydration the coupled, fixed red cells can be resuspended to form a perfect single cell suspension which then behaves as a fresh red cell suspension does in haemagglutination assays.
# [2] = test system: alkaline phosphate from calf intestine; assay: Preservation of dried alkaline phosphatase activity; assay type: biochemical; conditions: dried at 37° with 5% trehalose, 4 weeks at room temperature
# Method: The mammalian enzyme alkaline phosphate from calf intestine was serially diluted in phosphate buffered saline (PBS) and added to the wells of a NUNC Immunoplate. After overnight incubation to bind the enzyme to the plastic surface, the wells were washed, shaken free of liquid, and dried at 37° in the presence or absence of 5% trehalose in distilled water. […] At the end of this time the wells were rehydrated with distilled water and substrate added. A positive control consisted of fresh dilutions of the enzyme. The activity of one enzyme was measured by the standard test of […] p-nitrophenylphosphate and monitoring the optical density at 405 nm.
# B blood group substance = assay: titrated haemagglutination assay of dried mouse IgM anti B antibody; assay type: cell-based, human; conditions: dried at 37° overnight
# Method: as §1, §2
# [3] = test system: guinea pig serum complement; assay: CH50 assay, preservation of dried serum complement; assay type: cell-based
# Method: Guinea pig serum was prepared fresh and frozen in aliquots at -196° until use. As target cells, washed sheep erythrocytes (SRBC) which had been stored in Alsever's solution for up to 2 weeks were incubated with the bovine monoclonal anti-Forrsman antibody 94A1-AZA for 1 hr at 4° and then washed in complement fixation diluent (CFD). Freshly thawed guinea pig serum was diluted in CFD where required in flat bottom microtitre plate (NUNC, Denmark) and trehalose added at various concentrations. […] For the CH50 assay (P.J. Lachmann and M.J. Hobart in "Handbook of Experimental Immunology" ed. D.M. Weir, Blackwell 1978), dried or fresh complement was titrated out in a U bottom microtitre plate and sensitised SRBC added to a final concentration of 2%. […] The endpoint was measured as the cup in which 50% of the erythrocytes remained as a button.
# rat lymphocytes = assay: Fluorescence microscopy of labelled rat lymphocytes; assay type: cell-based; conditions: dried with 10% added trehalose
# Text: Fluorescence microscopy using R-phycoerythrin as the fluorochrome was previously very inefficient because of fluorescence fading in aqueous mountants. This can be prevented by drying of the preparation and mounting in a non-polar mountant such as Gurr's Fluoromount, but drying destroys more than 90% of the fluorescence of R-phycoerythrin. This is prevented by drying in the presence of trehalose in the final buffer.
# The anti CD4 monoclonal antibody W3/25 was coupled with biotin-linker-arm N-hydroxysuccinimide ester and used in saturating doses to label the T helper subset of rat lymphocytes. These labelled cells were then detected with a second stage staining using a streptavidin-R-phycoerythrin conjugate. After a final wash the cells were divided into four aliquots and one was examined in the FACS to illustrate correct labelling with these reagents. […] Smears were made and dried and then mounted in Fluoromount. The fourth aliquot was mounted wet in PBS. All three preparations were examined in a Zeiss photomicroscope II with Ploem optics.
# R-phycoerythrin = assay: Fluorescence of R-phycoerythrin after drying with or without trehalose; assay type: physicochemical, marine Rhodophyte; conditions: trehalose-containing samples, stored in the dark for 10 months
# Method: The phycobiliprotein R-phycoerythrin was purified from a marine Rhodophyte. This brilliantly fluorescent red protein was blotted onto nitrocellulose membrane or glass fibre filter paper in phosphate buffer with and without 10% w/v added trehalose and dried at room temperature.
# R-phycoerythrin at 5 mg/ml was dried at 37° on glass fibre filter paper (Whatman GF/C), cellulose filter paper (Whatman No. 1) or on nitrocellulose membrane (Schleicher & Schull 0.45μ pore size) in the presence of 5% trehalose in solution and in its absence. In the absence of trehalose the spots of dried R-phycoerythrin changed colour to a purplish red and lost >90% of their fluorescence intensity.
# A blood group substance = assay: titrated haemagglutination assay of dried mouse IgM anti A antibody; assay type: cell-based, human; conditions: dried at 37° overnight
# Method: as §1, §2
# rat IgG immunoglobulin = assay: indirect agglutination titre of dried or fresh sheep antiserum K237; assay type: cell-based
# Method: A sheep antiserum to rat IgG immunoglobulin (K237) was titrated in a 96 well flat bottom microtitre plate as 1:3 steps (25μl serum in 50μl PBS). 50μl of 5% w/v trehalose in D.W was then added and the plate dried at 37° in a warm room for 48 hr.
# The wells were reconstituted with 100μl distilled water. 50μl of the contents of each well were transferred to v bottom microtitre plates, DA rate erythrocytes were washed ×3 in saline and sensitized by incubation for 2 hr at RT with tissue culture supernatant of the monoclonal antibody R3/13 HLK which is specific for the A^a class 1 transplantation antigen on DA erythrocytes. The red cells were then washed x3 in saline and resuspended at 1% v/v in PBS +1% BSA. The sensitized rat erythrocytes were added. At the same time fresh K237 serum was titrated as above as a positive non-dried control.
# The capacity for the dried and fresh serum to cause indirect agglutination of the red cells sensitized by the rat antibody R3/13 was then read.
# cellular organelles = conditions: loss of bound water; cited from earlier work
compound,measurement,setting,value
R Phycoerythrin,brightness relative to fluorescein,[1],20 times
horseradish peroxidase,retention of enzyme activity,horseradish peroxidase,Identical results
"OC[C@H]1O[C@H](O[C@H]2[C@H](O)[C@@H](O)C(O)O[C@@H]2CO)[C@H](O)[C@@H](O)[C@@H]1O (mixture of isomers) [maltose, reference compound]",% activity retained in HA titre,Rh D antigen,11.1%
"OC[C@H]1O[C@H](OC[C@H]2O[C@H](O[C@]3(CO)O[C@H](CO)[C@@H](O)[C@@H]3O)[C@H](O)[C@@H](O)[C@@H]2O)[C@H](O)[C@@H](O)[C@H]1O [raffinose, reference compound]",difference from the untreated paper,rat IgG,No significant difference
same,% activity retained in HA titre,Rh D antigen,3.7%
"O=C[C@H](O)[C@@H](O)[C@H](O)[C@H](O)CO [glucose, reference compound]",% activity retained in HA titre,Rh D antigen,1.2%
haemoglobin,spectral properties after drying,haemoglobin,retain their spectral properties
"OC[C@H]1O[C@@](CO)(O[C@H]2O[C@H](CO)[C@@H](O)[C@H](O)[C@H]2O)[C@@H](O)[C@@H]1O [sucrose, reference compound]",difference from the untreated paper,rat IgG,No significant difference
same,% activity retained in HA titre,Rh D antigen,11.1%
"OC[C@H]1O[C@H](O[C@H]2O[C@H](CO)[C@@H](O)[C@H](O)[C@H]2O)[C@H](O)[C@@H](O)[C@@H]1O [Trehalose, α-D-glucopyranosyl-α-D-glucopyranoside]",function of antibody or antigen coupled to fixed red cell membrane,fixed red cells,completely preserves the function of the antibody or antigen
same,preservation and resuspension of fixed red cells,fixed red cells,completely preserves the fixed red cells themselves
same,retention of enzyme activity,[2],Full retention of activity
same,trehalose concentration preserving maximum activity,B blood group substance,above 0.5%
same,complement activity preserved,"[3]; 25% serum, trehalose 0.15M and above",100%
same,complement activity preserved,"[3]; 50% normal serum, trehalose 0.22M and above",100%
same,prevention of loss of complement activity,[3]; dried with trehalose and reconstituted,completely prevented
same,inhibition by high concentrations of trehalose,"[3]; up to 0.5M, any concentration of serum",not inhibitory
same,% activity retained in HA titre,Rh D antigen,100%
same,maximum preservation of activity,"Rh D antigen; human antibody, 2.5% final trehalose, dried at 37° overnight",100%
same,change in titre,"Rh D antigen; human antibody, 5% final trehalose concentration",slight decrease in titre
same,final concentration of trehalose at maximum preservation,"Rh D antigen; human antibody, at the drying stage",2.5%
same,brilliantly fluorescent cells,rat lymphocytes,75%
same,fading of fluorescent cells,rat lymphocytes,did not fade
same,fading of labelled cells on repeated examination,rat lymphocytes; several weeks,no detectable fading
same,fluorescence after storage,R-phycoerythrin,without loss of fluorescence
same,trehalose concentration preserving maximal activity,A blood group substance,above 1%
same,Titre (cups),"rat IgG immunoglobulin; Dried + Trehalose (5% w/v, 37°, 48 hr)",7
same,antibody activity of whole serum preserved,rat IgG immunoglobulin; dried with trehalose,100%
same,protection of cellular organelles compared with other carbohydrates,cellular organelles,significantly superior to other carbohydrates

# Source: US4891319A, “Protection of proteins and the like” (Quadrant Bioresources Limited, priority 1985, dated 1990)
